From US7423175B2, “Hydroxy-tetrahydro-naphthalenylurea derivatives” (Bayer Healthcare AG, priority 2003, dated 2008) come the findings set out here.

The target of one series is T1, human VR1 (Homo sapiens, UniProt Q8NER1).
T1 construct: expressed in transfected cells; host or cells: CHOluc9aeq (CHO cells with aequorin and CRE-luciferase reporter genes)
Description: Capsaicin-induced Ca2+ influx in the human VR1-transfected CHO cell line (Assay 1). Format: cell-based. Conditions: human VR1-CHOluc9aeq cells, stimulation with 10 nM capsaicin; read-out: activity class (IC50). An excerpt: [Measurement of Capsalcin-Induced Ca^2+ Influx in the Human VR1-Transfected CHO Cell Line] (Assay 1)
(1) Establishment of the Human VR1-CHOluc9aeq Cell Line
Human vanilloid receptor (hVR1) cDNA was cloned from libraries of axotomized dorsal root ganglia (WO 00/29577). The cloned hVR1 cDNA was constructed with pcDNA3 vector and transfected into a CHOluc9aeq cell line. The cell line contains aequorin and CRE-luciferase reporter genes as read-out signals. The transfectants were cloned by limiting dilution in selection medium (DMEM/F12 medium (Gibco BRL) supplemented with 10% FCS, 1.4 mM Sodium pyruvate, 20 mM HEPES, 0.15% Sodium bicarbonate, 100 U/ml penicillin, 100 μg/ml streptomycin, 2 mM glutamine, non-essential amino acids and 2 mg/ml G418). Ca^2+ influx was examined in the capsaicin-stimulated clones. A high responder clone was selected and used for further experiments in the project. The human VR1-CHOluc9aeq cells were maintained in the selection medium and passaged every 3-4 days at 1-2.5×10^5 cells/flask ([…]).
(2) Measurement of Ca^2+ Influx Using FDSS-3000
Human VR1-CHOluc9aeq cells were suspended in a culture medium which is the same as the selection medium except for G418 and seeded at a density of 1,000 cells per well into 384-well plates (black walled clear-base/Nalgei Nunc International). Following the culture for 48 hrs the medium was changed to 2 μM Fluo-3 AM (Molecular Probes) and 0.02% Puronic F-127 in assay buffer (Hank's balanced salt solution (HBSS), 17 mM HEPES (pH7.4), 1 mM Probenecid, 0.1% BSA) and the cells were incubated for 60 min at 25° C. After washing twice with assay buffer the cells were incubated with a test compound or vehicle for 20 min at 25° C. Mobilization of cytoplasmic Ca^2+ was measured by FDSS-3000 (λex=488 nm, λem=546 nm/Hamamatsu Photonics) for 60 sec after the stimulation with 10 nM capsaicin. Integral R was calculated and compared with controls.
Results in capsaicin-induced Ca^2+ influx assay in the human VR1-transfected CHO cell line (Assay 1) are shown in Examples and tables of the Examples below. For practical reasons, the compounds are grouped in four classes based on activity as follows: IC50=A(< or =)0.1 μM<B(< or =)0.5 μM<C(< or =)1 μM<D

T1 sequence (Q8NER1 whole entry): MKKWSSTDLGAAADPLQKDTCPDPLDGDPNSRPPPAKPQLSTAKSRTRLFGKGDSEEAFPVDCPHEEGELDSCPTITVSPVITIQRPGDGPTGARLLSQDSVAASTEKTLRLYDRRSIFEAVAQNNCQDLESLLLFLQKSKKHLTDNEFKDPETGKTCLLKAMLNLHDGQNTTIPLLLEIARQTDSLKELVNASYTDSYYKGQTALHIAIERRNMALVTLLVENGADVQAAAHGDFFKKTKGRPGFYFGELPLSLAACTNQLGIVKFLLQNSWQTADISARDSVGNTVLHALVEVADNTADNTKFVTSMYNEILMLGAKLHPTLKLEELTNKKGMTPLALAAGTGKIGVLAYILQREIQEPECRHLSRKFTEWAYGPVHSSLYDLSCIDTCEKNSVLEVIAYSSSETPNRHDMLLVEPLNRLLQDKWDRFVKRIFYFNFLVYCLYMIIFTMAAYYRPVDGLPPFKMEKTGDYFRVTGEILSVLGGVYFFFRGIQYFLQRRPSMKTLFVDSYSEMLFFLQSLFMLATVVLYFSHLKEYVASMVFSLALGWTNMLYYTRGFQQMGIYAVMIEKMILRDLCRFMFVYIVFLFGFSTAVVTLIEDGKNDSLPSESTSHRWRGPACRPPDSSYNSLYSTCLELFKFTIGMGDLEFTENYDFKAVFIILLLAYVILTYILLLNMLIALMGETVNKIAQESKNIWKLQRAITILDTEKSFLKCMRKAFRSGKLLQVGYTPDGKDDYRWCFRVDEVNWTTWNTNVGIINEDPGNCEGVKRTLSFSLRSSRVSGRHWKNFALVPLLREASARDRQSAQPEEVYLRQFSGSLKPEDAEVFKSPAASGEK

Consider `O=C(NCCOc1ccc(F)cc1)Nc1cccc2c1CC(O)CC2` (centres unmarked) [Example 1-1, N-[2-(4-Fluorophenoxy)ethyl]-N′-(7-hydroxy-5,6,7,8-tetrahydronaphthalen-1-yl)urea], for which the melting point (usually the temperature, or range, at which the solid turns liquid) fell in the range of 167 to 169 °C. The IC50 (usually the concentration needed to halve the response being measured) on human VR1 is less than 100 nM.
`O=C(NCCOc1ccccc1F)Nc1cccc2c1CC(O)CC2` (centres unmarked) [Example 1-2, N-[2-(2-Fluorophenoxy)ethyl]-N′-(7-hydroxy-5,6,7,8-tetrahydro-1-naphthalenyl)-urea] returned a melting point of 131 to 136 °C. In addition, the IC50 at human VR1 was less than 100 nM.
On the same counts, the results for `CCOC(=O)c1c(F)cccc1OCCNC(=O)Nc1cccc2c1CC(O)CC2` (centres unmarked) [Example 1-3, Ethyl 2-Fluoro-6-{2-[3-(7-hydroxy-5,6,7,8-tetrahydronaphthalen-1-yl)-ureido]-ethoxy}benzoate] are 165 to 166 °C and less than 100 nM.
As for `O=C(NCCOc1cc(C(F)(F)F)cc(C(F)(F)F)c1)Nc1cccc2c1CC(O)CC2` (centres unmarked) [Example 1-4, N-{2-[3,5-Bis(trifluoromethyl)phenoxy]ethyl}-N′-(7-hydroxy-5,6,7,8-tetrahydronaphthalen-1-yl)urea], the melting point was 144 to 149 °C. Moreover, on human VR1, the concentration for half-maximal inhibition (IC50) was less than 100 nM.
On the same counts, the results for `O=C(NCCOc1ccccc1N1CCCCC1)Nc1cccc2c1CC(O)CC2` (centres unmarked) [Example 1-5, N-(7-Hydroxy-5,6,7,8-tetrahydronaphthalen-1-yl)-N′-[2-(2-piperidin-1-yl-phenoxy)ethyl]urea] are 128 to 136 °C and less than 100 nM.
As to `COc1ccccc1OCCNC(=O)Nc1cccc2c1CC(O)CC2` (centres unmarked) [Example 1-6, N-(7-Hydroxy-5,6,7,8-tetrahydronaphthalen-1-yl)-N′-[2-(2-methoxyphenoxy)ethyl]urea], the melting point was in the range of 182 to 184 °C. Besides, the concentration for half-maximal inhibition (IC50) on human VR1 was greater than 1000 nM.
In the case of `O=C(NCCOc1ccc(F)cc1)Nc1cccc2c1C[C@H](O)CC2` [Example 1-7, N-[2-(4-Fluorophenoxy)ethyl]-N′-[(7R)-7-hydroxy-5,6,7,8-tetrahydronaphthalen-1-yl]urea], the melting point fell in the range of 111 to 113 °C. The 50% inhibitory concentration (IC50) at human VR1 was less than 100 nM.
In the case of `O=C(NCCOc1ccc(F)cc1)Nc1cccc2c1C[C@@H](O)CC2` [Example 1-8, N-[2-(4-Fluorophenoxy)ethyl]-N′-[(7S)-7-hydroxy-5,6,7,8-tetrahydronaphthalen-1-yl]urea], the melting point lay in the range of 112 to 113 °C. Besides, the IC50 on human VR1 was less than 100 nM.
In turn, `CCN(CCNC(=O)Nc1cccc2c1CC(O)CC2)c1cccc(C)c1` (centres unmarked) [Example 1-9, N-{2-[Ethyl(m-tolyl)amino]ethyl]-N′-(7-hydroxy-5,6,7,8-tetrahydro-1-naphthalenyl)urea] returned a melting point of 149 to 150 °C. Moreover, the half-maximal inhibitory concentration (IC50) on human VR1 was less than 100 nM.
Take `Cc1cccc(N(C)CCNC(=O)Nc2cccc3c2CC(O)CC3)c1` (centres unmarked) [Example 1-10, N-(7-Hydroxy-5,6,7,8-tetrahydronaphthalen-1-yl)-N′-{2-[methyl(m-tolyl)amino]-ethyl}urea]: the melting point was in the range of 160 to 162 °C. Besides, the IC50 on human VR1 is less than 100 nM.
For `CCN(CCNC(=O)Nc1cccc2c1C[C@H](O)CC2)c1cccc(C)c1` [Example 1-11, N-{2-[Ethyl(m-tolyl)amino]ethyl}-N′-[(7R)-7-hydroxy-5,6,7,8-tetrahydro-1-naphthalenyl]urea], in that order: 143 to 144 °C and less than 100 nM.
On the same counts, the results for `CCN(CCNC(=O)Nc1cccc2c1C[C@@H](O)CC2)c1cccc(C)c1` [Example 1-12, N-{2-[Ethyl(m-tolyl)amino]ethyl}-N′-[(7S)-7-hydroxy-5,6,7,8-tetrahydro-1-naphthalenyl]urea] are 136 to 137 °C and less than 100 nM.
On to `CN(CCCNC(=O)Nc1cccc2c1CC(O)CC2)c1ccccc1` (centres unmarked) [Example 1-13, N-(7-Hydroxy-5,6,7,8-tetrahydronaphthalen-1-yl)-N′-[3-(methyl-phenyl-amino)propyl]urea], for which the melting point lay in the range of 125 to 126 °C. Moreover, on human VR1, the IC50 was less than 100 nM.
